Experimental data from patent US20030203963A1, “Antimicrobial agent” (priority 2001, published 2003).

Columns and labels:
L. monocyt. Scott A = test: Bioscreen growth inhibition test; type: cell-based, Listeria monocytogenes; conditions: BS010510, 24 h at 30° C., APP20010213
Experimental: (§1) For broth cultures and Bioscreen testing most bacteria were grown in Brain Heart Infusion (BHI, Oxoid, pH 7.4). Lactobacillus sake A10 was grown in de Man, Rogosa, Sharpe medium ([…], Oxoid). Yeasts were grown in Sabouraud Liquid medium (SLM, Oxoid). Most bacteria were cultured at 30° C. Lactic acid bacteria were grown on solid medium in enriched CO2 atmosphere. Clostridium species were grown in Reinforced Clostridial Medium (RCM) at 37° C. anaerobically. Brochothrix thermosphacta fungi and yeasts were grown at 25° C. Fungi were cultured on Malt Extract Agar (MEA, Oxoid).
(§2) An automated Microbiology Reader Bioscreen C was used to measure growth curves of the strains in the presence and absence of APP. The Bioscreen C measures the development of turbidity (i.e. growth) kinetically by vertical photometry in 200 wells of a honeycomb microtitre plate, simultaneously. The system consists of a Bioscreen C analyser, which is an incubator and measurement unit, integrated with a PC, software (BioLink v 5.30), printer and a ‘Honeycomb 2’ cuvette multiwell plate. Growth curve data can be analysed within the BioLink software or exported to programs such as Excel.
(§3) Broth culture media were dispensed in 270 μl volumes into the wells as directed. Serial dilutions of a filter-sterilised APP stock solution were then dispensed into the same wells, as appropriate. The wells were inoculated with 30 μl of an appropriately diluted overnight broth culture or spore suspension, to give a final inoculum level of […]. The tests were incubated in the Bioscreen C for either 24 h at 30° C., or 72 h at 25° C. (depending on the micro-organism under investigation) with readings taken every 20 minutes after the trays were shaken. After the incubation period was complete the data were exported to Excel for analysis.

L. monocytogenes 358 = test: Bioscreen growth inhibition test; type: cell-based, Listeria monocytogenes; conditions: BS010510, 24 h at 30° C., APP20010213
Experimental: as §1, §2, §3

L. monocyt. F6861 = test: Bioscreen growth inhibition test; type: cell-based, Listeria monocytogenes; conditions: BS010510, 24 h at 30° C., APP20010213
Experimental: as §1, §2, §3

L. monocytogenes 272 = test: Bioscreen growth inhibition test; type: cell-based, Listeria monocytogenes; conditions: BS010411, 24 h at 30° C.
Experimental: as §1, §2, §3

L. monocytogenes S23 = test: Bioscreen growth inhibition test; type: cell-based, Listeria monocytogenes; conditions: BS010411, 24 h at 30° C.
Experimental: as §1, §2, §3

[1] = system: S. carisbergensis CRA6413; test: Bioscreen growth inhibition test; type: cell-based, Saccharomyces carlsbergensis; conditions: APP 213, BS010420, 72 h/25° C.
Experimental: as §1, §2
Broth culture media were dispensed in 270 μl volumes into the wells as directed. […] (depending on the micro-organism under investigation) with readings taken every 20 minutes after the trays were shaken. […]

B. cereus 204 = test: Chicken soup trial at 8° C.; type: cell-based, Bacillus cereus; conditions: chicken soup at 8° C.
Text: (§4) A local supermarket brand of cream of chicken soup was used as a model food system. 600 g packs were purchased from the local supermarket. This was a ‘fresh home-made type’ of soup that was stored in the chill cabinet, with a short shelf life. It was chosen because it is a rich, nutritious food system containing a range of food components including meat, dairy and vegetable.
(§5) Ingredients were labelled as: chicken stock (water, duck fat, chicken, salt, flavourings, yeast extracts, pork gelatine, glucose syrup, vegetable concentrate, milk protein, sugar, malto-dextrin, vegetable oil, citric acid, lactose, chicken fat), ilk, chicken (9%), cream (8%), onion, potato, vegetable oil, modified maize starch, wheat flour, lemon juice, salt, white pepper. pH 5.912. Protein: 3.3%; carbohydrate: 4.7%; fat: 7.2%; fibre: 0.2%; sodium: 0.1%
(§6) For the test the soup was mixed 2:1 in water (to facilitate sampling and mixing) and sterilised by autoclaving at 121° C. for 15 minutes. For each experiment the pH of the soup was recorded; this was between pH 5.79-5.88.
For TCS010412/8 (which was incubated at 8° C.), APP batch number APP20010213 (concentration 169 mg APP/ml) was used to prepare tests containing 0, 2000 or 4000 ppm APP. 5 g of filter-sterilised APP stock solution was added to 94 g of soup, mixed and then 1 ml of a diluted inoculum suspension (cells or spores as appropriate) was added to give a test inoculum level of 10^3 cfu/g. The soup mixture was shaken vigorously to ensure homogeneous distribution of the APP and micro-organisms. The tests were tested by viable count and then incubated at 8° C. and tested on a twice-weekly basis.
(§7) For TCS010521/8 (incubated at 8° C.), samples were prepared in 27.8 g quantities. 1.5 g of an APP stock solution was added, and the tests inoculated with 0.3 ml of a suitably diluted cell or spore suspension to give a final inoculum of ca. 10^3 cfu/g. APP was tested at 0, 500 and 1000 ppm, and batch number APP20010213 (at 169 mg/ml) was used. The tests were sampled by viable count and then incubated at 8° C. and tested on a twice-weekly basis.

Salm. Typhimurium S29 = test: Bioscreen growth inhibition test; type: cell-based, Salmonella Typhimurium; conditions: BS010411, 24 h/30° C.
Experimental: as §1, §2, §3

Ps. fluorescens 327 = test: Chicken soup trial at 8° C.; type: cell-based, Pseudomonas fluorescens; conditions: chicken soup at 8° C., TCSM010521, APP215
Text: as §4, §5, §6, §7

S. cerevisiae 9763 = test: Chicken soup trial at 8° C.; type: cell-based, Saccharomyces cerevisiae; conditions: for Effect on growth: chicken soup at 8° C., TCSM010521, APP215
Text: as §4, §5, §6, §7

[2] = system: Salmonella Typhimurium S29; test: Chicken soup trial at 20° C.; type: cell-based; conditions: chicken soup at 20° C., TCSM010430, APP20010213
Text: as §4, §5, §6
For TCS010430/20 (incubated at 20° C.) samples were prepared in 18.8 g quantities, to which 1 g of a suitable filter-sterilised APP stock solution was added and an appropriately diluted 0.2 ml inoculum. Great care was again taken to ensure homogeneous distribution of the APP and micro-organisms. This test was sampled by viable count test on a daily basis.

## O=C1CC(CO)OC=C1O (centres unmarked) [APP, Ascopyrone P]
L. monocyt. Scott A
  APP level causing significant inhibition: 2000 ppm
  APP level causing total inhibition: 3000 ppm
L. monocytogenes 358
  APP level causing total inhibition: 3000 ppm
L. monocyt. F6861
  APP level causing significant inhibition: 2000 ppm
  APP level causing total inhibition: 3000 ppm
L. monocytogenes 272; APP20010213
  APP level causing significant inhibition: 2000 ppm
  APP level causing total inhibition: 4000 ppm
L. monocytogenes 272; APP20010215
  APP level causing significant inhibition: 2000 ppm
  APP level causing total inhibition: >4000 ppm
L. monocytogenes S23; APP20010213
  APP level causing significant inhibition: 2000 ppm
  APP level causing total inhibition: 4000 ppm
L. monocytogenes S23; APP20010215
  APP level causing significant inhibition: 1000 ppm
  APP level causing total inhibition: 4000 ppm
[1]
  APP level causing significant inhibition: Enhanced growth
  APP level causing total inhibition: >4000
B. cereus 204; 500 and 1000 ppm, TCSM010521, APP215
  Counts / spore kill: Counts remain at approx initial level, i.e. no spore kill.
B. cereus 204; 500 ppm, TCSM010521, APP215
  Total inhibition for: Total inhibition by 500 and 1000 ppm for >27 days.
B. cereus 204; 1000 ppm, TCSM010521, APP215
  Total inhibition for: Total inhibition by 500 and 1000 ppm for >27 days.
B. cereus 204; 2000 and 4000 ppm, TCS010412, APP20010213
  Counts / spore kill: Counts remain at initial level, i.e. no spore kill.
B. cereus 204; 2000 ppm, TCS010412, APP20010213
  Total inhibition for: Total inhibition by 2000 and 4000 ppm for >60 days.
B. cereus 204; 4000 ppm, TCS010412, APP20010213
  Total inhibition for: Total inhibition by 2000 and 4000 ppm for >60 days.
Salm. Typhimurium S29; APP 20010213
  APP level causing significant inhibition: 2000 ppm
  APP level causing total inhibition: 4000 ppm
Salm. Typhimurium S29; APP 20010215
  APP level causing significant inhibition: 2000 ppm
  APP level causing total inhibition: >4000 ppm
Ps. fluorescens 327; 500 ppm
  Effect on growth: Little effect with 500 ppm
Ps. fluorescens 327; 1000 ppm
  Counts undetectable: At 1000 ppm counts undetectable >7 d
  Total inhibition for: Total inhibition by 1000 ppm for >27 days.
S. cerevisiae 9763; 500 ppm
  Effect on growth: No effect with 500 and 1000 ppm
S. cerevisiae 9763; 1000 ppm
  Effect on growth: No effect with 500 and 1000 ppm
S. cerevisiae 9763; Chicken soup at 8° C. pH 5.8, (1000 ppm)
  No inhibition (effect on growth of target organism by APP): S. cerevisiae (1000
[2]; 1000 ppm
  Effect on growth: No effect with 1000 ppm
[2]; 2000 ppm (cf 10^9 without)
  Final count: 10^6
[2]; 2000 ppm
  Counts drop after: 8 days
  Counts undetectable by: counts drop, undetectable by 18 d.
